Data on 11 molecules can be found in publication PMC9861757, “New Insights into Conformationally Restricted Carbonic Anhydrase Inhibitors” (Molecules, 2023).

The term pKi denotes −log10 of the Ki, conventionally taken in molar units.

Experiment [1] has as its target T1, human CA I (Homo sapiens, UniProt P00915). Nature of the experiment: stopped-flow CO2 hydrase assay, CA I inhibition. Particulars: for loss of CA I inhibition potency relative to 3a: comparator 3a; for inhibition of CA I (in words): qualitative statement.
Procedure: (§1) An Applied Photophysics stopped-flow instrument was used to assay the CA catalyzed CO2 hydration activity [14]. […] The uncatalyzed rates were determined in the same manner and subtracted from the total observed rates. Stock solutions of the inhibitor (0.1 mM) were prepared in distilled–deionized water and dilutions up to 0.01 nM were done thereafter with the assay buffer. Inhibitor and enzyme solutions were preincubated together for 15 min at room temperature prior to the assay to allow for the formation of the E–I complex. The inhibition constants were obtained by non-linear least-squares methods using PRISM 3 and the Cheng–Prusoff equation, as reported earlier, and represent the mean from at least three different determinations. All CA isoforms were recombinant proteins obtained in house, as reported earlier [1, 12, 13].
Experiment [2] concerns the target T2, human CA II (Homo sapiens, UniProt P00918). Nature of the experiment: stopped-flow CO2 hydrase assay, CA II inhibition.
Procedure: as §1
The target in experiment [3] is T3, human CA XII (Homo sapiens, UniProt O43570). The experiment can be described thus: stopped-flow CO2 hydrase assay, CA XII inhibition.
T3 sequence (O43570 25-354): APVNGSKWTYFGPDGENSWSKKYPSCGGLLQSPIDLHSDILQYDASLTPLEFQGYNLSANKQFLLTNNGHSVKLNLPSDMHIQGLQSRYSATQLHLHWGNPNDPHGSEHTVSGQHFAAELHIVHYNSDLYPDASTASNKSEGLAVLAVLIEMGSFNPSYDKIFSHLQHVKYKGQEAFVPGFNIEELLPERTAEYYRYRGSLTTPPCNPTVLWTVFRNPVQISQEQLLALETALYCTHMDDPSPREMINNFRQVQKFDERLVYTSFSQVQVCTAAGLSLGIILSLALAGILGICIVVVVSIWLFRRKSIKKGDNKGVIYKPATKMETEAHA
Procedure: as §1
The target in experiment [4] is T4, human CA IX (Homo sapiens, UniProt Q16790). Nature of the experiment: stopped-flow CO2 hydrase assay, CA IX inhibition. As to conditions: for SI (IX/II): ratio KI CA IX / KI CA II.
Procedure: as §1
Experiment [5] deals with T2, human CA II. Also on record: made in house; method as in PMID 31076951. Particulars: stopped-flow CO2 hydrase assay; compound marked with a reference in Table 1; cited from earlier work.
Experiment [6] deals with T3, human CA XII. Also on record: made in house; method as in PMID 31076951. As to conditions: stopped-flow CO2 hydrase assay; compound marked with a reference in Table 1; cited from earlier work.
Experiment [7] concerns the target T4, human CA IX. Also on record: made in house; method as in PMID 31076951. As to conditions: stopped-flow CO2 hydrase assay; compound marked with a reference in Table 1; cited from earlier work.
The target of experiment [8] is T1, human CA I. Also on record: made in house; method as in PMID 31076951. Particulars: stopped-flow CO2 hydrase assay; compound marked with a reference in Table 1; cited from earlier work.

pKi: −log10 of the molar value. Where two headings read alike, the source gives them in different places.

T1 sequence (P00915 whole entry): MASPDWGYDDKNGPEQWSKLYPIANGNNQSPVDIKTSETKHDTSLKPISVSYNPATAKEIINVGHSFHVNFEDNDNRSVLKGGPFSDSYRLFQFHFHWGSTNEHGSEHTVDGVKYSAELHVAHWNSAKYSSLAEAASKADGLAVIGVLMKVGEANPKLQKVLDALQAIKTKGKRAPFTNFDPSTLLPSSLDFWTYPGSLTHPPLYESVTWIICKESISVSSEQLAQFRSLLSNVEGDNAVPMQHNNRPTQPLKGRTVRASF

With `NS(=O)(=O)c1ccc(O)c(NC(=O)N2CCCC2)c1` [Compound 3a, N-(2-Hydroxy-5-sulfamoylphenyl)pyrrolidine-1-carboxamide], the pKi in experiment [1] is 6.23; in experiment [2], 5.50; in experiment [3] it was 7.04; in experiment [4] it was 6.43. For the same molecule, the “more effective CA XII inhibitor than 3b” value in experiment [3] (CA XII, comparator 3b) is listed as 5.5 fold. For the same molecule, the “SI (IX/II)” value in experiment [4] turned out to be 0.12.
For `NS(=O)(=O)c1ccc(O)c(NC(=O)N2CCCCC2)c1` [Compound 3b, N-(2-Hydroxy-5-sulfamoylphenyl)piperidine-1-carboxamide], the pKi was 5.06 in experiment [1], 6.04 in experiment [2], 6.30 in experiment [3] and 6.51 in experiment [4]. The “loss of CA I inhibition potency relative to 3a” value in experiment [1] (CA I) is listed as 14.8 fold. In addition, in experiment [2] (CA II, comparator 3a), the “more effective on CA II than 3a” value worked out at 3.5 fold. Moreover, in experiment [4] (CA IX, comparator 3a), the “more effective on CA IX than 3a” value is 1.2 fold. Moreover, in experiment [4], the “SI (IX/II)” value is reported as 0.34.
As for `NS(=O)(=O)c1ccc(O)c(NC(=O)N2CCOCC2)c1` [Compound 3c, N-(2-Hydroxy-5-sulfamoylphenyl)morpholine-4-carboxamide], the pKi in experiment [1] is 5.40; in experiment [2] it was 5.10; in experiment [3], 7.13; in experiment [4], 6.85. Moreover, the “loss of CA I inhibition potency relative to 3a” value in experiment [1] (CA I) is 6.9 fold. Besides, the “CA IX potency increase relative to 3b” value in experiment [4] (CA IX, comparator 3b) was 2.2 fold. For the same molecule, in experiment [4], the “SI (IX/II)” value came out at 0.017.
Take `NS(=O)(=O)c1ccc(O)c(NC(=O)NCCN2CCCCC2)c1` [Compound 3d, 4-Hydroxy-3-(3-(2-(piperidin-1-yl)ethyl)ureido)benzenesulfonamide]: the pKi in experiment [1] was 6.16; in experiment [2], 6.54; in experiment [3], 6.18; in experiment [4], 5.39. The “SI (IX/II)” value in experiment [4] stood at 14.3.
Turning to `NS(=O)(=O)c1ccc(O)c(NC(=O)NCCN2CCOCC2)c1` [Compound 3e, 4-Hydroxy-3-(3-(2-morpholinoethyl)ureido)benzenesulfonamide], the negative logarithm of the Ki (pKi) in experiment [1] was 5.04; in experiment [2] it was 5.52; in experiment [3], 6.20; in experiment [4], 5.67. The “decrease of CA I affinity relative to 3d” value in experiment [1] (CA I, comparator 3d) is 13.4 fold. Further, the “more potent CA IX inhibition compared to 3d” value in experiment [4] (CA IX, comparator 3d) worked out at 1.9 fold. For the same molecule, in experiment [4], the “SI (IX/II)” value is given as 0.71.
Consider `CCN1CCN(C(=O)Nc2cc(S(N)(=O)=O)ccc2O)CC1` [Compound 3f, 4-Ethyl-N-(2-hydroxy-5-sulfamoylphenyl)piperazine-1-carboxamide], for which the negative-log Ki (pKi) in experiment [1] is 5.05; in experiment [2], 5.11; in experiment [3], 6.30; in experiment [4], 5.67. In addition, the “decrease of CA I affinity relative to 3d” value in experiment [1] (CA I, comparator 3d) is reported as 13.1 fold. Besides, the “more effective CA XII inhibitor than 3d” value in experiment [3] (CA XII, comparator 3d) worked out at 1.3 fold. Also, the “SI (IX/II)” value in experiment [4] is reported as 0.28.
As to `NS(=O)(=O)c1ccc(O)c(NC(=O)NCc2ccncc2)c1` [Compound 3g, 4-Hydroxy-3-(3-(pyridin-4-ylmethyl)ureido)benzenesulfonamide], the pKi in experiment [5] was 6.33; in experiment [6], 7.07; in experiment [7] it was 9.52; in experiment [8], 7.05. Also, the “more potent on CA I compared to AAZ” value in experiment [1] (CA I, comparator AAZ) is on record as “up to 2.8 fold”. Moreover, the “SI (IX/II)” value in experiment [4] is on record as 0.0006.
In the case of `NS(=O)(=O)c1ccc(O)c(NC(=O)NCCc2ccccn2)c1` [Compound 3h, 4-Hydroxy-3-(3-(2-(pyridin-2-yl)ethyl)ureido)benzenesulfonamide], the pKi in experiment [5] was 6.48; in experiment [6], 7.18; in experiment [7], 9.62; in experiment [8], 6.24. Further, the “CA I potency increase relative to 3d” value in experiment [1] (CA I, comparator 3d) is reported as 1.2 fold. In addition, the “SI (IX/II)” value in experiment [4] was determined as 0.0007.
For the molecule `NS(=O)(=O)c1ccc(O)c(NC(=O)N2CCN(CC(=O)NC3CCCCC3)CC2)c1` [Compound 3i, 4-(2-(Cyclohexylamino)-2-oxoethyl)-N-(2-hydroxy-5-sulfamoylphenyl)piperazine-1-carboxamide], the pKi in experiment [1] is 6.16; in experiment [2], 6.39; in experiment [3] it was 7.47; in experiment [4] it was 6.69. Also, the “inhibition of CA I (in words)” value in experiment [1] (CA I) is “did not result in appreciable inhibition”. For the same molecule, in experiment [4], the “SI (IX/II)” value is listed as 0.50.
Take `NS(=O)(=O)c1ccc(O)c(NC(=O)NCCCCO)c1` [Compound 3j, 4-Hydroxy-3-(3-(4-hydroxybutyl)ureido)benzenesulfonamide]: the pKi in experiment [5] is 6.55; in experiment [6] it was 7.33; in experiment [7], 6.67. For the same molecule, the “inhibition of CA I (in words)” value in experiment [1] (CA I) is on record as “did not result in appreciable inhibition”. Besides, in experiment [4], the “SI (IX/II)” value is recorded as 0.46.
On to `NS(=O)(=O)c1ccc(CCNC(=O)Nc2ccccc2O)cc1` [Compound 3k, 4-(2-(3-(2-Hydroxyphenyl)ureido)ethyl)benzenesulfonamide], for which the “inhibition of CA I (in words)” value in experiment [1] (CA I) is on record as “did not result in appreciable inhibition”. The pKi is 7.12 in experiment [2], 6.62 in experiment [3] and 7.46 in experiment [4]. Further, the “less effective on CA II than AAZ” value in experiment [2] (CA II, comparator AAZ) is on record as 6.3 fold. Moreover, in experiment [4], the “SI (IX/II)” value was determined as 0.77.
